Some results are limits rather than exact numbers.

This assay deals with T1, human GLP-1 (Homo sapiens, UniProt P43220).
T1 construct: expressed in transfected cells
T1 sequence (P43220 24-463): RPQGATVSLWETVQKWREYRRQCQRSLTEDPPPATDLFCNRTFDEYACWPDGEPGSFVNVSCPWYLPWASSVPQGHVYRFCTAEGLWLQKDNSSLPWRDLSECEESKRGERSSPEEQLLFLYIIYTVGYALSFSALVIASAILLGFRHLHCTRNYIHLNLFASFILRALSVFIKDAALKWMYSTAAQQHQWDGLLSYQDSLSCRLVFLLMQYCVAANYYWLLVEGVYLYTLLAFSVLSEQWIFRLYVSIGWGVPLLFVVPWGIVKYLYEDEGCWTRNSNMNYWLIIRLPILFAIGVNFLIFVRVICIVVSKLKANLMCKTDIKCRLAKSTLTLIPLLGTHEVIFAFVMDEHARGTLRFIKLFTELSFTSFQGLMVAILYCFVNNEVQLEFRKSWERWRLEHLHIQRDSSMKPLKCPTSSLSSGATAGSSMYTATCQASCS
The assay is described as follows: h-GLP-1 activity assay (Cisbio cAMP Gs dynamic kit, HTRF). The assay is classed as cell-based. To be noted: HEK293 cells with stable expression of human GLP-1, relative EC50, 10 nM human GLP-1 = 100% response. As to the method:
Human GLP-1 agonizing activity was detected in HEK293 cells with stable expression of human GLP-1 by Cisbio cAMP Gs dynamic kit (Catalog #62AM4PEC) according to manufacturer's protocol. Briefly, cells were collected and resuspended in assay buffer containing 0.1% BSA and 0.5 mM of IBMX at concentration to 2.5×10^5 cells/mL. Two μL 5× compound solution and 8 μL cell suspension were added to each well of low-volume 384 white assay plate. After 30 min incubation at 37° C., 5 μL cAMP-d2 working solution and 5 μL anti-cAMP antibody-cryptate were added to each well, and incubate at room temperature for 1 hr. Series dilution of cAMP was used as standard. Human GLP-1 (7-37) was used as positive control and 10 nM human GLP-1 was set as 100% response. HTRF signals were read at 665 and 615 nm with EnVision plate reader and calculated cAMP concentration by intrapolation to the standard curve. The EC50 value of the tested compounds was calculated by fitting the dose response curve using a 4-parameter non-linear regression routine and relative EC50 was presented in Table S.
In the case of `CC1(c2ccc(Cl)cc2F)Oc2cccc(-c3ccn(Cc4nc5ccc(C(=O)O)cc5n4C[C@@H]4CCO4)c(=O)c3)c2O1` (mixture of isomers) [Compound 22, 2-((4-(2-(4-chloro-2-fluorophenyl)-2-methylbenzo[d][1,3]dioxol-4-yl)-2-oxopyridin-1(2H)-yl)methyl)-1-(((S)-oxetan-2-yl)methyl)-1H-benzo[d]imidazole-6-carboxylic acid], the EC50 was in the range of 20 to 100 nM.

On to `O=C(O)c1ccc2nc(CN3CCC(c4cccc5c4OC(c4ccc(Cl)cc4F)C(=O)N5)CC3)n(C[C@@H]3CCO3)c2c1` (mixture of isomers) [Compound 104, 2-((4-(2-(4-chloro-2-fluorophenyl)-3-oxo-3,4-dihydro-2H-benzo[b][1,4]oxazin-8-yl)piperidin-1-yl)methyl)-1-(((S)-oxetan-2-yl)methyl)-1H-benzo[d]imidazole-6-carboxylic acid], for which the EC50 was in the range of 20 to 100 nM.

For `C[C@]1(c2ccc(Cl)cn2)Oc2cccc(C3=CC[C@@H](Cc4nc5ccc(C(=O)O)cc5n4Cc4cscn4)OC3)c2O1` (single isomer, unassigned) [Compound 115], the EC50 was > 100 nM.

On to `CC1(c2ccc(Cl)cc2F)Oc2cccc(-c3ccc(Cc4nc5ccc(C(=O)O)cc5n4C[C@@H]4CCO4)cc3)c2O1` (mixture of isomers) [Compound 15, 2-(4-(2-(4-chloro-2-fluorophenyl)-2-methylbenzo[d][1,3]dioxol-4-yl)benzyl)-1-(((S)-oxetan-2-yl)methyl)-1H-benzo[d]imidazole-6-carboxylic acid], for which the EC50 was < 20 nM.

For the molecule `C[C@@]1(c2ccc(Cl)cn2)Oc2cccc(N3CC=C(Cc4nc5ccc(C(=O)O)cc5n4C[C@@H]4CCO4)CC3)c2O1` (single isomer, unassigned) [Compound 77], the EC50 was < 20 nM.

In turn, `CC1(c2ccc(Cl)cc2F)Oc2cccc(-c3ncc(Cc4nc5ccc(C(=O)O)cc5n4C[C@@H]4CCO4)cn3)c2O1` (mixture of isomers) [Compound 21, 2-((2-(2-(4-chloro-2-fluorophenyl)-2-methylbenzo[d][1,3]dioxol-4-yl)pyrimidin-5-yl)methyl)-1-(((S)-oxetan-2-yl)methyl)-1H-benzo[d]imidazole-6-carboxylic acid] had an EC50 of 20 to 100 nM.

With `C[C@]1(c2ccc(Cl)cn2)Oc2cccc(C3=CC[C@@H](Cc4nc5c(F)cc(C(=O)O)cc5n4Cc4cscn4)OC3)c2O1` (single isomer, unassigned) [Compound 117], the EC50 was > 100 nM.

`C[C@@]1(c2ccc(Cl)cn2)Oc2cccc(C34CCN(Cc5nc6ccc(C(=O)O)cc6n5C[C@@H]5CCO5)CC3C4)c2O1` (single isomer, unassigned) [Compound 72]: the EC50 was < 20 nM.

`CC1(c2ccc(Cl)cc2F)Oc2c(cccc2C2CCN(Cc3nc4ccc(C(=O)O)cc4n3C[C@@H]3CCO3)CC2)NC1=O` (mixture of isomers) [Compound 68, 2-((4-(2-(4-chloro-2-fluorophenyl)-2-methyl-3-oxo-3,4-dihydro-2H-benzo[b][1,4]oxazin-8-yl)piperidin-1-yl)methyl)-1-(((S)-oxetan-2-yl)methyl)-1H-benzo[d]imidazole-6-carboxylic acid] had an EC50 of 20 to 100 nM.

Take `C[C@]1(c2ccc(Cl)cn2)Oc2cccc(C3=CC[C@H](Cc4nc5ccc(C(=O)O)cc5n4Cc4cncs4)OC3)c2O1` (single isomer, unassigned) [Compound 112]: the 50% effective concentration (EC50) was < 20 nM.

With `C[C@@]1(c2ccc(Cl)cn2)Oc2cccc(C3CCN(Cc4nc5ccc(C(=O)O)cc5n4C[C@@H]4CCO4)CC3(F)F)c2O1` (single isomer, unassigned) [Compound 76], the EC50 is < 20 nM.

Turning to `N#Cc1ccc(COc2cccc([C@@H]3CC[C@@H](Cc4nc5ccc(C(=O)O)cc5n4C[C@@H]4CCO4)OC3)n2)c(F)c1` (single isomer, unassigned) [Compound 31], the EC50 is < 20 nM.

Regarding `N#Cc1ccc(COc2cccc([C@H]3CC[C@H](Cc4nc5ccc(C(=O)O)cc5n4C[C@@H]4CCO4)OC3)n2)c(F)c1` (single isomer, unassigned) [Compound 30], the concentration giving a half-maximal response (EC50) was < 20 nM.

With `CC1(c2ccc(Cl)cc2F)Oc2cccc(C3CCC(Cc4nc5ccc(C(=O)O)cc5n4C[C@@H]4CCO4)CO3)c2O1` (mixture of isomers) [Compound 58, 2-((6-(2-(4-chloro-2-fluorophenyl)-2-methylbenzo[d][1,3]dioxol-4-yl)tetrahydro-2H-pyran-3-yl)methyl)-1-(((S)-oxetan-2-yl)methyl)-1H-benzo[d]imidazole-6-carboxylic acid], the EC50 is > 100 nM.

Regarding `C[C@@]1(c2ccc(Cl)cn2)Oc2cccc(N3CC4C(Cc5nc6ccc(C(=O)O)cc6n5C[C@@H]5CCO5)C4C3)c2O1` (single isomer, unassigned) [Compound 73], the EC50 is > 100 nM.

On to `O=C(O)c1ccc2nc(CC34CCC(c5ccnc(OCc6ccc(Cl)cc6F)n5)(CC3)CO4)n(C[C@@H]3CCO3)c2c1` [Compound 35, (S)-2-((4-(2-((4-chloro-2-fluorobenzyl)oxy)pyrimidin-4-yl)-2-oxabicyclo[2.2.2]octan-1-yl)methyl)-1-(oxetan-2-ylmethyl)-1H-benzo[d]imidazole-6-carboxylic acid], for which the EC50 is > 100 nM.

Turning to `O=C(O)c1ccc2nc(Cc3cc(F)c(-c4cccc5c4OC(c4ccc(Cl)cc4F)CO5)cc3F)n(C[C@@H]3CCO3)c2c1` (mixture of isomers) [Compound 60, 2-(4-(3-(4-chloro-2-fluorophenyl)-2,3-dihydrobenzo[b][1,4]dioxin-5-yl)-2,5-difluorobenzyl)-1-(((S)-oxetan-2-yl)methyl)-1H-benzo[d]imidazole-6-carboxylic acid], the EC50 is < 20 nM.

For the molecule `O=C(O)c1ccc2nc(CN3CC=C(c4cccc5c4OC(c4ccc(Cl)cc4F)C(=O)N5)CC3)n(C[C@@H]3CCO3)c2c1` (mixture of isomers) [Compound 81, 2-((4-(2-(4-chloro-2-fluorophenyl)-3-oxo-3,4-dihydro-2H-benzo[b][1,4]oxazin-8-yl)-3,6-dihydropyridin-1(2H)-yl)methyl)-1-(((S)-oxetan-2-yl)methyl)-1H-benzo[d]imidazole-6-carboxylic acid], the EC50 is > 100 nM.

As for `CC1(c2c(F)cc(Cl)cc2F)Oc2cccc(C3=CCC(Cc4nc5ccc(C(=O)O)cc5n4C[C@@H]4CCO4)OC3)c2O1` (mixture of isomers) [Compound 109, 2-((5-(2-(4-chloro-2,6-difluorophenyl)-2-methylbenzo[d][1,3]dioxol-4-yl)-3,6-dihydro-2H-pyran-2-yl)methyl)-1-(((S)-oxetan-2-yl)methyl)-1H-benzo[d]imidazole-6-carboxylic acid], the EC50 is < 20 nM.

On to `O=C(O)c1ccc2nc(CC3CC(c4cccc(OCc5ccc(Cl)cc5F)n4)CO3)n(C[C@@H]3CCO3)c2c1` (mixture of isomers) [Compound 71, 2-((4-(6-((4-chloro-2-fluorobenzyl)oxy)pyridin-2-yl)tetrahydrofuran-2-yl)methyl)-1-(((S)-oxetan-2-yl)methyl)-1H-benzo[d]imidazole-6-carboxylic acid], for which the EC50 was > 100 nM.

Take `Cc1cc(Cc2nc3ccc(C(=O)O)cc3n2C[C@@H]2CCO2)ccc1-c1cccc2c1OC(C)(c1ccc(Cl)cc1F)O2` (mixture of isomers) [Compound 43, 2-(4-(2-(4-chloro-2-fluorophenyl)-2-methylbenzo[d][1,3]dioxol-4-yl)-3-methylbenzyl)-1-(((S)-oxetan-2-yl)methyl)-1H-benzo[d]imidazole-6-carboxylic acid]: the EC50 was < 20 nM.

Take `N#Cc1ccc(COc2nccc(C34CCC(Cc5nc6ccc(C(=O)O)cc6n5C[C@@H]5CCO5)(CC3)CC4)n2)c(F)c1` [Compound 34, (S)-2-((4-(2-((4-cyano-2-fluorobenzyl)oxy)pyrimidin-4-yl)bicyclo[2.2.2]octan-1-yl)methyl)-1-(oxetan-2-ylmethyl)-1H-benzo[d]imidazole-6-carboxylic acid]: the EC50 is > 100 nM.

Take `CC1(c2ccc(Cl)cc2F)Oc2cccc(-c3cnc(Cc4nc5ccc(C(=O)O)cc5n4C[C@@H]4CCO4)nc3)c2O1` (mixture of isomers) [Compound 17, 2-((5-(2-(4-chloro-2-fluorophenyl)-2-methylbenzo[d][1,3]dioxol-4-yl)pyrimidin-2-yl)methyl)-1-(((S)-oxetan-2-yl)methyl)-1H-benzo[d]imidazole-6-carboxylic acid]: the concentration for a half-maximal effect (EC50) is < 20 nM.

As to `C[C@]1(c2ccc(Cl)cn2)Oc2cccc(C3=CC[C@H](Cc4nc5c(F)cc(C(=O)O)cc5n4Cc4cscn4)OC3)c2O1` (single isomer, unassigned) [Compound 116], the EC50 was < 20 nM.

With `C[C@@]1(c2ccc(C3CC3)cn2)Oc2cccc(C3=CC[C@H](Cc4nc5c(F)cc(C(=O)O)cc5n4C[C@@H]4CCO4)OC3)c2O1` (single isomer, unassigned) [Compound 123], the EC50 is < 20 nM.

Take `C[C@@]1(c2ccc(Cl)cn2)Oc2cccc(C3C4CN(Cc5nc6ccc(C(=O)O)cc6n5C[C@@H]5CCO5)CC43)c2O1` (single isomer, unassigned) [Compound 85]: the EC50 is 20 to 100 nM.

For the molecule `O=C(O)c1ccc2nc(Cc3ccc(-c4cccc5c4NC(=O)C(c4ccc(Cl)cc4F)O5)cc3)n(C[C@@H]3CCO3)c2c1` (mixture of isomers) [Compound 42, 2-(4-(2-(4-chloro-2-fluorophenyl)-3-oxo-3,4-dihydro-2H-benzo[b][1,4]oxazin-5-yl)benzyl)-1-(((S)-oxetan-2-yl)methyl)-1H-benzo[d]imidazole-6-carboxylic acid], the EC50 was > 100 nM.

`C[C@]1(c2ccc(Cl)cc2F)Oc2cccc(C3=CC[C@@H](Cc4nc5ccc(C(=O)O)cc5n4C[C@@H]4CCO4)OC3)c2O1` (single isomer, unassigned) [Compound 101] returned an EC50 of 20 to 100 nM.
